Values quoted from earlier work, collected in US11260068B2, “Long-circulating liposome modified with c(RGD-ACP-K)” (BEIJING GREATSUN BIO-PHARM. TECH. CO., LTD, priority 2017, dated 2022).
“Also recorded” adds a separate entry of the source. Starred links: 1 amine or outer side, 2 acyl side, 3 side chain; linkers in the order of their positions; H or OH if unused. Non-standard residues stand in square brackets, D forms with d. Residues, ends and D or L forms follow the SMILES beside them. X1 = O=C(C1CCC(N[*:1])C1)[*:2]

Molecular target: T1, integrin αvβ3 on the surface of U87MG cells (Homo sapiens, UniProt P05106+P06756)
T1 construct: U87MG glioblastoma cells expressing integrin αvβ3; endogenous in cells; host or cells: U87MG glioblastoma cells
T1 sequence (P06756 31-889 limits assumed): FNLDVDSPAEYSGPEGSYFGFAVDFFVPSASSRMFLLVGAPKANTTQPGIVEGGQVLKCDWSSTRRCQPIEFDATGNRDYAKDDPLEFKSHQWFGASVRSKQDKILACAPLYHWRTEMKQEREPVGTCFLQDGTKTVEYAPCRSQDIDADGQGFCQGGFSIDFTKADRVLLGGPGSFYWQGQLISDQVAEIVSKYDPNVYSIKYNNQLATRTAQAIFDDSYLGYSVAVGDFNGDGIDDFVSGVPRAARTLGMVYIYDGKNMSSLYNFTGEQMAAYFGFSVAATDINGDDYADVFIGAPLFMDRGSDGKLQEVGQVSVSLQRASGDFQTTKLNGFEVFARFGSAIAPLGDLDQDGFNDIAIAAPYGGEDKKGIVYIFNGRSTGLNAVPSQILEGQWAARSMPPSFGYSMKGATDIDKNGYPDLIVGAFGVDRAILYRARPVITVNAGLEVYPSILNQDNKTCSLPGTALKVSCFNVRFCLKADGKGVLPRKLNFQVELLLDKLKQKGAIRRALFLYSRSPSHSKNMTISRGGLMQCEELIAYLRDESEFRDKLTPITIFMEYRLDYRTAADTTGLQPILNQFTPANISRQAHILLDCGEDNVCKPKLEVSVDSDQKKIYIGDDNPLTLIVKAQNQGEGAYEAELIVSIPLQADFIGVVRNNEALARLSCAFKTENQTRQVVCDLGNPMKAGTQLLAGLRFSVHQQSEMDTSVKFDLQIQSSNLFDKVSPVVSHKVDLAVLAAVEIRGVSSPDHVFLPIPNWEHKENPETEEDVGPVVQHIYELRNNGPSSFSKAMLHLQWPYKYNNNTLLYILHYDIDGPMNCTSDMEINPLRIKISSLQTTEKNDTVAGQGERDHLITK
T1 sequence (P06756 891-1048 partner limits assumed): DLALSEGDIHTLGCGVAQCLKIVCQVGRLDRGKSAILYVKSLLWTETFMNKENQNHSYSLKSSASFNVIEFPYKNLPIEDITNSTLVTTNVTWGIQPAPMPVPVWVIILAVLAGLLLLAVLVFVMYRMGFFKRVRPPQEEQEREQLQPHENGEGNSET
T1 sequence (P05106 27-788): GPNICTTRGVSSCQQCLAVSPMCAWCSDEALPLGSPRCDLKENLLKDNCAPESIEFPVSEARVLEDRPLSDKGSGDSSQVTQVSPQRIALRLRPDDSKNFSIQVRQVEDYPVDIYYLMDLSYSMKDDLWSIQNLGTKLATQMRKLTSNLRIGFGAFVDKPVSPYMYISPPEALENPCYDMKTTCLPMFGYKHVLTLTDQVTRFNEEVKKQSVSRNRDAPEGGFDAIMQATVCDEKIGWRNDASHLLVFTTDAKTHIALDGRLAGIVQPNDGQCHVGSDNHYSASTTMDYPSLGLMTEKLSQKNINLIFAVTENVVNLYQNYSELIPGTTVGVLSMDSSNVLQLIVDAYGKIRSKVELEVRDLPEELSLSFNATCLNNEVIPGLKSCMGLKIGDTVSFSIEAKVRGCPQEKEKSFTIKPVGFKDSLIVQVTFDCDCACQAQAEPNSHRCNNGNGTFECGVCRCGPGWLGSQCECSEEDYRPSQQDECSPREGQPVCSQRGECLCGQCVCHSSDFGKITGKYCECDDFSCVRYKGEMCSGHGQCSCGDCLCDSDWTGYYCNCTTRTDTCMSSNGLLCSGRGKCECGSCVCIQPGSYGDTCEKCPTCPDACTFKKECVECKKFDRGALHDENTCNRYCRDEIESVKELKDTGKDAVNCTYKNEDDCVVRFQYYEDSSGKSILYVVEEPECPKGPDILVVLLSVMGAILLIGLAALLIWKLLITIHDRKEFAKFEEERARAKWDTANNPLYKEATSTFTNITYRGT
Settings: reference c(RGDyK)

Molecule | binding to integrin αvβ3 on the surface of U87MG cells
N=C(N)NCCC[C@@H]1NC(=O)[C@H](CCCCN)NC(=O)C2CCC(C2)NC(=O)[C@H](CC(=O)O)NC(=O)CNC1=O (stereo partly drawn) [c(RGD-ACP-K), cyclo[RGD-(1S,3R)-3-aminocyclopentane-1-carboxylic acid]] (cyclo(RGD[X1]K)) | superior to that of the cyclic peptide c(RGDyK); also recorded: significantly higher than that of c(RGD-ACH-K)
cyclic [c(RGD-ACH-K), cyclic [RGD-(1S,3R)-3-aminocyclohexanecarboxylic acid]] | superior to that of the cyclic peptide c(RGDyK)
